The test deals with T1, human PTH1 receptor (Homo sapiens, UniProt Q03431).
T1 sequence (Q03431 27-593): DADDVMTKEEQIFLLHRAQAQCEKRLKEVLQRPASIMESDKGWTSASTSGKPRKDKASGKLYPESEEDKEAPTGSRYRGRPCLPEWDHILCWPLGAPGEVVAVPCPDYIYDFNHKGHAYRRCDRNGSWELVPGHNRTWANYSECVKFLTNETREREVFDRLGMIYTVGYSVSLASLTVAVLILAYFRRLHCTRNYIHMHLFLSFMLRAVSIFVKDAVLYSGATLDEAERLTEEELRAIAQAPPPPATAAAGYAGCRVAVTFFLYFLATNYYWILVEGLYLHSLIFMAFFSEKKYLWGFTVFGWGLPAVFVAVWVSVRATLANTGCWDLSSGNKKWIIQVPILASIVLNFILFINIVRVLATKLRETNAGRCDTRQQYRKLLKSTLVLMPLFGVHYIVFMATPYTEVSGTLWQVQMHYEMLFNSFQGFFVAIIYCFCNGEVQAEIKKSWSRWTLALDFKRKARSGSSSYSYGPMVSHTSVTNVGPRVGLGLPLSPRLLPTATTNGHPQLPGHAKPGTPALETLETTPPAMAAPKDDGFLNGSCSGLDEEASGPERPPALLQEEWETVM
The test is described as follows: In vitro cAMP signal activity in HKRK-B7 cells (LLC-PK1 cells overexpressing the human PTH1 receptor). The test is classed as cell-based. As to conditions: HKRK-B7 cells; compound at 1×10^−3 M; cAMP produced as percentage of that produced by hPTH(1-34) at 100 nM.
On to `CCCCCCCCCC1=NC2(CCN(S(=O)(=O)CCc3c(C)cc(C(=O)N4CCC(O)CC4)cc3C)CC2)C(=O)N1` [Compound 984, 8-{2-[4-(4-hydroxy-piperidine-1-carbonyl)-2,6-dimethyl-phenyl]-ethanesulfonyl}-2-nonyl-1,3,8-triaza-spiro[4.5]dec-1-en-4-one], for which the “cAMP production activity (%)” value is given as 133%.
`CCCCCCCCCC1=NC2(CCN(S(=O)(=O)CCc3c(C)cc(C(=O)N4CC(O)C4)cc3C)CC2)C(=O)N1` [Compound 985, 8-{2-[4-(3-hydroxy-azetidine-1-carbonyl)-2,6-dimethyl-phenyl]-ethanesulfonyl}-2-nonyl-1,3,8-triaza-spiro[4.5]dec-1-en-4-one]: the “cAMP production activity (%)” value was found to be 120%.
For the compound `CCCCCCCCCC1=NC2(CCN(S(=O)(=O)CCc3c(C)cc(C(=O)N4CCN(C)CC4)cc3C)CC2)C(=O)N1` [Compound 986, 8-{2-[2,6-dimethyl-4-(4-methyl-piperazine-1-carbonyl)-phenyl]-ethanesulfonyl}-2-nonyl-1,3,8-triaza-spiro[4.5]dec-1-en-4-one], the “cAMP production activity (%)” value is listed as 96%.
With `CONC(=O)Cc1ccc(/C=C/S(=O)(=O)N2CCC3(CC2)N=C(C2CCC(C)CC2)NC3=O)c(C)c1` (stereo not shown) [Compound 988, N-methoxy-2-(3-methyl-4-{(E)-2-[2-(4-methyl-cyclohexyl)-4-oxo-1,3,8-triaza-spiro[4.5]dec-1-ene-8-sulfonyl]-vinyl}-phenyl)-acetamide] the figure was 50%.
With `Cc1cc(C(=O)N2CCC(C)(O)CC2)cc(C)c1/C=C/S(=O)(=O)N1CCC2(CC1)N=C(C1CCC(CCC(F)(F)F)CC1)NC2=O` (stereo not shown) [Compound 989, 8-{(E)-2-[4-(4-Hydroxy-4-methyl-piperidine-1-carbonyl)-2,6-dimethyl-phenyl]-ethenesulfonyl}-2-[4-(3,3,3-trifluoro-propyl)-cyclohexyl]-1,3,8-triaza-spiro[4.5]dec-1-en-4-one] the figure was 86%; with `Cc1cc(C(=O)N2CCC(O)(CF)CC2)cc(C)c1/C=C/S(=O)(=O)N1CCC2(CC1)N=C(C1CCC(CCC(F)(F)F)CC1)NC2=O` (stereo not shown) [Compound 990, 8-{(E)-2-[4-(4-fluoromethyl-4-hydroxy-piperidine-1-carbonyl)-2,6-dimethyl-phenyl]-ethenesulfonyl}-2-[4-(3,3,3-trifluoro-propyl)-cyclohexyl]-1,3,8-triaza-spiro[4.5]dec-1-en-4-one], 87%.
As to `Cc1cc(C(=O)N2CCN(C)CC2)cc(C)c1/C=C/S(=O)(=O)N1CCC2(CC1)N=C(C1CCC(CCC(F)(F)F)CC1)NC2=O` (stereo not shown) [Compound 991, 8-{(E)-2-[2,6-dimethyl-4-(4-methyl-piperazine-1-carbonyl)-phenyl]-ethenesulfonyl}-2-[4-(3,3,3-trifluoro-propyl)-cyclohexyl]-1,3,8-triaza-spiro[4.5]dec-1-en-4-one], the “cAMP production activity (%)” value amounted to 64%.
With `Cc1cc(C(=O)N2CCCO2)cc(C)c1/C=C/S(=O)(=O)N1CCC2(CC1)N=C(C1CCC(CCC(F)(F)F)CC1)NC2=O` (stereo not shown) [Compound 992, 8-{(E)-2-[4-(isoxazolidine-2-carbonyl)-2,6-dimethyl-phenyl]-ethenesulfonyl}-2-[4-(3,3,3-trifluoro-propyl)-cyclohexyl]-1,3,8-triaza-spiro[4.5]dec-1-en-4-one] the figure was 65%.
Consider `Cc1cc(C(=O)N2CCC(OC[C@H](O)CO)CC2)cc(C)c1/C=C/S(=O)(=O)N1CCC2(CC1)N=C(C1CCC(CCC(F)(F)F)CC1)NC2=O` (stereo partly drawn) [Compound 993, 8-((E)-2-{4-[4-((R)-2,3-dihydroxy-propoxy)-piperidine-1-carbonyl]-2,6-dimethyl-phenyl}-ethenesulfonyl)-2-[4-(3,3,3-trifluoro-propyl)-cyclohexyl]-1,3,8-triaza-spiro[4.5]dec-1-en-4-one], for which the “cAMP production activity (%)” value is 64%.
With `Cc1cc(C(=O)N(C)C)cc(C)c1/C=C/S(=O)(=O)N1CCC2(CC1)N=C(C1CCC(CCC(F)(F)F)CC1)NC2=O` (stereo not shown) [Compound 994, 3,5,N,N-tetramethyl-4-((E)-2-{4-oxo-2-[4-(3,3,3-trifluoro-propyl)-cyclohexyl]-1,3,8-triaza-spiro[4.5]dec-1-ene-8-sulfonyl}-vinyl)-benzamide] the figure was 87%; with `Cc1cc(C(=O)N2CCN(C)CC2)cc(C)c1CCS(=O)(=O)N1CCC2(CC1)N=C(C1CCC(CCC(F)(F)F)CC1)NC2=O` (stereo not shown) [Compound 995, 8-{2-[2,6-Dimethyl-4-(4-methyl-piperazine-1-carbonyl)-phenyl]-ethanesulfonyl}-2-[4-(3,3,3-trifluoro-propyl)-cyclohexyl]-1,3,8-triaza-spiro[4.5]dec-1-en-4-one], 98%; with `Cc1cc(C(=O)NN)cc(C)c1/C=C/S(=O)(=O)N1CCC2(CC1)N=C(C1CCC(CCC(F)(F)F)CC1)NC2=O` (stereo not shown) [Compound 996, 3,5-Dimethyl-4-((E)-2-{4-oxo-2-[4-(3,3,3-trifluoro-propyl)-cyclohexyl]-1,3,8-triaza-spiro[4.5]dec-1-ene-8-sulfonyl}-vinyl)-benzoic acid hydrazide], 85%.
With `Cc1cc(C(=O)N2CCCN2)cc(C)c1/C=C/S(=O)(=O)N1CCC2(CC1)N=C(C1CCC(CCC(F)(F)F)CC1)NC2=O` (stereo not shown) [Compound 997, 8-{(E)-2-[2,6-dimethyl-4-(pyrazolidine-1-carbonyl)-phenyl]-ethenesulfonyl}-2-[4-(3,3,3-trifluoro-propyl)-cyclohexyl]-1,3,8-triaza-spiro[4.5]dec-1-en-4-one] the figure was 74%; with `CON(C)C(=O)c1cc(C)c(/C=C/S(=O)(=O)N2CCC3(CC2)N=C(C2CCC(C)CC2)NC3=O)c(C)c1` (stereo not shown) [Compound 998, N-Methoxy-3,5,N-trimethyl-4-{(E)-2-[2-(4-methyl-cyclohexyl)-4-oxo-1,3,8-triaza-spiro[4.5]dec-1-ene-8-sulfonyl]-vinyl}-benzamide], 92%; with `Cc1cc(C(=O)N2CCC(C)(O)CC2)cc(C)c1/C=C/S(=O)(=O)N1CCC2(CC1)N=C(C1CCC(C)CC1)NC2=O` (stereo not shown) [Compound 999, 8-{(E)-2-[4-(4-hydroxy-4-methyl-piperidine-1-carbonyl)-2,6-dimethyl-phenyl]-ethenesulfonyl}-2-(4-methyl-cyclohexyl)-1,3,8-triaza-spiro[4.5]dec-1-en-4-one], 61%.
With `Cc1cc(C(=O)N2CCC(O)(CF)CC2)cc(C)c1/C=C/S(=O)(=O)N1CCC2(CC1)N=C(C1CCC(C)CC1)NC2=O` (stereo not shown) [Compound 1000, 8-{(E)-2-[4-(4-fluoromethyl-4-hydroxy-piperidine-1-carbonyl)-2,6-dimethyl-phenyl]-ethenesulfonyl}-2-(4-methyl-cyclohexyl)-1,3,8-triaza-spiro[4.5]dec-1-en-4-one] the figure was 86%; with `Cc1cc(C(=O)N2CCCO2)cc(C)c1/C=C/S(=O)(=O)N1CCC2(CC1)N=C(C1CCC(C)CC1)NC2=O` (stereo not shown) [Compound 1001, 8-{(E)-2-[4-(isoxazolidine-2-carbonyl)-2,6-dimethyl-phenyl]-ethenesulfonyl}-2-(4-methyl-cyclohexyl)-1,3,8-triaza-spiro[4.5]dec-1-en-4-one], 64%; with `Cc1cc(C(=O)N2CCS(=O)(=O)CC2)cc(C)c1/C=C/S(=O)(=O)N1CCC2(CC1)N=C(C1CCC(C)CC1)NC2=O` (stereo not shown) [Compound 1002, 8-{(E)-2-[4-(1,1-dioxo-1λ^6-thiomorpholine-4-carbonyl)-2,6-dimethyl-phenyl]-ethenesulfonyl}-2-(4-methyl-cyclohexyl)-1,3,8-triaza-spiro[4.5]dec-1-en-4-one], 50%.
As to `Cc1cc(C(=O)N(C)C)cc(C)c1/C=C/S(=O)(=O)N1CCC2(CC1)N=C(C1CCC(C)CC1)NC2=O` (stereo not shown) [Compound 1003, 3,5,N,N-tetramethyl-4-{(E)-2-[2-(4-methyl-cyclohexyl)-4-oxo-1,3,8-triaza-spiro[4.5]dec-1-ene-8-sulfonyl]-vinyl}-benzamide], the “cAMP production activity (%)” value was determined as 67%.
Under `Cc1cc(C(=O)N2CCC(O)(C(F)(F)F)CC2)cc(C)c1/C=C/S(=O)(=O)N1CCC2(CC1)N=C(C1CCCCC1)NC2=O` [Compound 1006, 2-Cyclohexyl-8-{(E)-2-[4-(4-hydroxy-4-trifluoromethyl-piperidine-1-carbonyl)-2,6-dimethyl-phenyl]-ethenesulfonyl}-1,3,8-triaza-spiro[4.5]dec-1-en-4-one] stands 52%; under `Cc1cc(C(=O)N2CCOC2=O)cc(C)c1/C=C/S(=O)(=O)N1CCC2(CC1)N=C(C1CCCCC1)NC2=O` [Compound 1007, 2-Cyclohexyl-8-{(E)-2-[2,6-dimethyl-4-(2-oxo-oxazolidine-3-carbonyl)-phenyl]-ethenesulfonyl}-1,3,8-triaza-spiro[4.5]dec-1-en-4-one], 20%; under `CCCCC1CCC(C2=NC3(CCN(S(=O)(=O)/C=C/c4c(C)cc(C(=O)N5CCC(OCCO)CC5)cc4C)CC3)C(=O)N2)CC1` (stereo not shown) [Compound 1008, 2-(4-Butyl-cyclohexyl)-8-((E)-2-{4-[4-(2-hydroxy-ethoxy)-piperidine-1-carbonyl]-2,6-dimethyl-phenyl}-ethenesulfonyl)-1,3,8-triaza-spiro[4.5]dec-1-en-4-one], 73%.

Source of the values: patent US9169254B2, “Spiroimidazolone derivative” (Chugai Seiyaku Kabushiki Kaisha, priority 2009, dated 2015).
